# Values quoted from earlier work in patent publication US12102751B2, “Positive pressure inhaler for delivery of inhalable medication and methods for use” (priority 2019, dated 2024).
# How the values were obtained:
# [1] = after vaping
Compound,time after which plasma concentration falls [1] [min],time at which plasma concentration reaches maximum strength [1] [min],"solubility in most organic solvents (most organic solvents, specifically lipids and alcohols)",solubility in water (water)
"CCCCCc1cc(O)c2c(c1)OC(C)(C)[C@@H]1CCC(C)=C[C@@H]21 [THC, tetrahydrocannabinol]",22,6,good,very low
"C=C(C)[C@@H]1CCC(C)=C[C@H]1c1c(O)cc(CCCCC)cc1O [CBD, Cannabidiol]",22,6,–,–
